Test results as given in patent US6737383B1, “Herbicidal oxadiazolidines” (priority 1999, dated 2004).

What was measured:
[1] = tested on: bedstraw; experiment: Test B pre/postemergence bedstraw; format: in vivo, Galium aparine
Method in brief: (§1)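 Herbicidal effect was estimated by eye on a ten-point control scale after plants spent twelve to sixteen days in a greenhouse following soil or foliar treatment. Foliar sprays targeted plants at one to four leaves; all doses were formulated in a non-phytotoxic solvent with surfactant.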

[2] = tested on: blackgrass; experiment: Test B pre/postemergence blackgrass; format: in vivo, Alopecurus myosuroides
Method in brief: as §1

[3] = tested on: surinam grass; experiment: Test B pre/postemergence surinam grass; format: in vivo, Brachiaria decumbens
Method in brief: as §1

[4] = tested on: corn; experiment: Test B pre/postemergence corn; format: in vivo, Zea mays
Method in brief: as §1

[5] = tested on: crabgrass; experiment: Test B pre/postemergence crabgrass; format: in vivo, Digitaria sanguinalis
Method in brief: as §1

[6] = tested on: pigweed; experiment: Test B pre/postemergence pigweed; format: in vivo, Amaranthus retroflexus
Method in brief: as §1

[7] = tested on: rape; experiment: Test B pre/postemergence rape; format: in vivo, Brassica napus
Method in brief: as §1

[8] = tested on: soybean; experiment: Test B pre/postemergence soybean; format: in vivo, Glycine max
Method in brief: as §1

[9] = tested on: sugar beet; experiment: Test B pre/postemergence sugar beet; format: in vivo, Beta vulgaris
Method in brief: as §1

[10] = tested on: velvetleaf; experiment: Test B pre/postemergence velvetleaf; format: in vivo, Abutilon theophrasti
Method in brief: as §1

[11] = tested on: wheat; experiment: Test B pre/postemergence wheat; format: in vivo, Triticum aestivum
Method in brief: as §1

[12] = tested on: wild oat; experiment: Test B pre/postemergence wild oat; format: in vivo, Avena fatua
Method in brief: as §1

[13] = tested on: purple nutsedge; experiment: Test B pre/postemergence purple nutsedge; format: in vivo, Cyperus rotundus
Method in brief: as §1

[14] = tested on: rice; experiment: Test B flood test rice; format: in vivo, Oryza sativa
Method in brief: (§2)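 Plants were grown to the 2-leaf stage before treatment with test chemical, then held in a greenhouse for twelve to sixteen days. Injury was visually rated against untreated controls on a 0–10 scale, where 0 is no effect and 10 is complete control.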

[15] = tested on: smallflower flatsedge; experiment: Test B flood test smallflower flatsedge; format: in vivo, Cyperus difformis
Method in brief: as §2

[16] = tested on: duck salad; experiment: Test B flood test duck salad; format: in vivo, Heteranthera limosa
Method in brief: as §2

[17] = Postemergence, Rate 62 g/ha, scale 0 to 10, 0 is no effect, 10 is complete control
[18] = Postemergence, Rate 250 g/ha, scale 0 to 10, 0 no effect, 10 complete control
[19] = Preemergence, Rate 62 g/ha, scale 0 to 10, 0 is no effect, 10 is complete control
[20] = Preemergence, Rate 125 g/ha, scale 0 to 10 (0 no effect, 10 complete control)
[21] = Preemergence, Rate 250 g/ha, scale of 0 to 10 where 0 is no effect and 10 is complete control
[22] = Preemergence, Rate 500 g/ha, scale 0 (no effect) to 10 (complete control)
[23] = Rate 125 g/ha, Postemergence, scale 0 to 10, 0 no effect, 10 complete control
[24] = Rate 500 g/ha, Postemergence, 0 to 10 scale (0 no effect, 10 complete control)
[25] = Rate 125 g/ha, Postemergence section (flood test species), scale 0 to 10, 0 no effect, 10 complete control
[26] = Rate 500 g/ha, Postemergence section of Table B, 0 to 10 scale (0 no effect, 10 complete control)
[27] = flood test, listed under Postemergence, Rate 250 g/ha, scale 0 to 10, 0 no effect, 10 complete control

Cc1ccccc1-n1c(=O)on(C(=O)N(c2ccc(F)cc2F)C(C)C)c1=O [Compound 25]
5: Blackgrass plant response rating [2, 23] | Plant response rating, Crabgrass [5, 19]
9: Crabgrass plant response rating [5, 18] | Crabgrass plant response rating [5, 24]
2: B. signalgrass plant response rating [3, 24] | Crabgrass plant response rating [5, 17] | Soybean plant response rating [8, 17] | Sugarbeets plant response rating [9, 22] | Plant response rating, Wild oats [12, 20]
6: Blackgrass plant response rating [2, 18] | Plant response rating, Wild oats [12, 21]
3: Bedstraw plant response rating [1, 22] | Plant response rating, Blackgrass [2, 19] | Plant response rating, Blackgrass [2, 20] | Soybean plant response rating [8, 18] | Soybean plant response rating [8, 23] | Rice plant response rating [14, 26]
7: Bedstraw plant response rating [1, 18] | Bedstraw plant response rating [1, 24] | Blackgrass plant response rating [2, 24] | Plant response rating, B. signalgrass [3, 21] | B. signalgrass plant response rating [3, 22] | Crabgrass plant response rating [5, 23] | Wild oats plant response rating [12, 22]
1: Wild oats plant response rating [12, 18]
8: Plant response rating, Blackgrass [2, 21] | Blackgrass plant response rating [2, 22] | Plant response rating, Crabgrass [5, 20] | Plant response rating, Redroot pigweed [6, 21] | Redroot pigweed plant response rating [6, 22]
0: Plant response rating, Bedstraw [1, 19] | Plant response rating, Bedstraw [1, 20] | Plant response rating, Bedstraw [1, 21] | B. signalgrass plant response rating [3, 17] | B. signalgrass plant response rating [3, 18] | Plant response rating, B. signalgrass [3, 19] | Plant response rating, B. signalgrass [3, 20] | B. signalgrass plant response rating [3, 23] | Corn plant response rating [4, 17] | Corn plant response rating [4, 18] | Plant response rating, Corn [4, 19] | Plant response rating, Corn [4, 20] | Plant response rating, Corn [4, 21] | Corn plant response rating [4, 22] | Corn plant response rating [4, 23] | Corn plant response rating [4, 24] | Redroot pigweed plant response rating [6, 17] | Redroot pigweed plant response rating [6, 18] | Plant response rating, Redroot pigweed [6, 19] | Plant response rating, Redroot pigweed [6, 20] | Redroot pigweed plant response rating [6, 23] | Rape plant response rating [7, 17] | Rape plant response rating [7, 18] | Plant response rating, Rape [7, 19] | Plant response rating, Rape [7, 20] | Plant response rating, Rape [7, 21] | Rape plant response rating [7, 22] | Rape plant response rating [7, 23] | Rape plant response rating [7, 24] | Plant response rating, Soybean [8, 19] | Plant response rating, Soybean [8, 20] | Plant response rating, Soybean [8, 21] | Soybean plant response rating [8, 22] | Sugarbeets plant response rating [9, 17] | Sugarbeets plant response rating [9, 18] | Plant response rating, Sugarbeets [9, 19] | Plant response rating, Sugarbeets [9, 20] | Plant response rating, Sugarbeets [9, 21] | Sugarbeets plant response rating [9, 23] | Velvetleaf plant response rating [10, 17] | Velvetleaf plant response rating [10, 18] | Plant response rating, Velvetleaf [10, 19] | Plant response rating, Velvetleaf [10, 20] | Plant response rating, Velvetleaf [10, 21] | Velvetleaf plant response rating [10, 22] | Velvetleaf plant response rating [10, 23] | Wheat plant response rating [11, 17] | Wheat plant response rating [11, 18] | Plant response rating, Wheat [11, 19] | Plant response rating, Wheat [11, 20] | Plant response rating, Wheat [11, 21] | Wheat plant response rating [11, 22] | Wheat plant response rating [11, 23] | Wild oats plant response rating [12, 17] | Wild oats plant response rating [12, 23] | Nutsedge plant response rating [13, 17] | Nutsedge plant response rating [13, 18] | Plant response rating, Nutsedge [13, 19] | Plant response rating, Nutsedge [13, 20] | Plant response rating, Nutsedge [13, 21] | Nutsedge plant response rating [13, 22] | Nutsedge plant response rating [13, 23] | Rice plant response rating [14, 17] | Rice plant response rating [14, 25] | Rice plant response rating [14, 27] | S. Flatsedge plant response rating [15, 17] | S. Flatsedge plant response rating [15, 25] | S. Flatsedge plant response rating [15, 27] | Ducksalad plant response rating [16, 17] | Ducksalad plant response rating [16, 25] | Ducksalad plant response rating [16, 26] | Ducksalad plant response rating [16, 27]
10: Plant response rating, Crabgrass [5, 21] | Crabgrass plant response rating [5, 22]
4: Bedstraw plant response rating [1, 17] | Bedstraw plant response rating [1, 23] | Blackgrass plant response rating [2, 17] | Redroot pigweed plant response rating [6, 24]
